According to the NIST ThermoML archive (doi:10.1021/je100228t):
Numbers after ± are expanded uncertainties.

Details: for surface tension liquid-gas: Maximal bubble pressure; for mass density: 101.33 kPa, Liquid

For CCn1cc[n+](C)c1.N#C[B-](C#N)(C#N)C#N [1-ethyl-3-methylimidazolium tetracyanoborate], the surface tension liquid-gas (283.15 K) was 49.4 ± 0.3 mN/m, the mass density (283.15 K) was 1048.37 ± 1.1 kg/m3 and the surface tension liquid-gas (288.15 K) was 48.9 ± 0.3 mN/m. It also gave a mass density (288.15 K) of 1044.37 ± 1.1 kg/m3, a surface tension liquid-gas (293.15 K) of 48.2 ± 0.3 mN/m and a mass density (293.15 K) of 1040.38 ± 1.1 kg/m3. It also gave a surface tension liquid-gas (298.15 K) of 47.8 ± 0.3 mN/m, a mass density (298.15 K) of 1036.41 ± 1.1 kg/m3 and a surface tension liquid-gas (303.15 K) of 47.6 ± 0.3 mN/m. It also gave a mass density (303.15 K) of 1032.46 ± 1.1 kg/m3, a surface tension liquid-gas (308.15 K) of 47.1 ± 0.3 mN/m and a mass density (308.15 K) of 1028.55 ± 1 kg/m3. It also gave a surface tension liquid-gas (313.15 K) of 46.8 ± 0.3 mN/m, a mass density (313.15 K) of 1024.66 ± 1 kg/m3 and a surface tension liquid-gas (318.15 K) of 46.4 ± 0.3 mN/m. For the same molecule, the mass density (318.15 K) was 1020.78 ± 1 kg/m3, the surface tension liquid-gas (323.15 K) was 46.2 ± 0.3 mN/m and the mass density (323.15 K) was 1016.95 ± 1 kg/m3. The surface tension liquid-gas (328.15 K) was 45.5 ± 0.3 mN/m, the mass density (328.15 K) was 1013.11 ± 1 kg/m3 and the surface tension liquid-gas (333.15 K) was 45 ± 0.3 mN/m. It also gave a mass density (333.15 K) of 1009.32 ± 1 kg/m3, a surface tension liquid-gas (338.15 K) of 44.8 ± 0.3 mN/m and a mass density (338.15 K) of 1005.54 ± 1 kg/m3.
